Data: patent US20220054532A1, “VETERINARY COMPOSITIONS AND METHODS OF USE THEREFOR” (priority 2019, published 2022)

Tests used:
Assay type in all cases: in vivo
[1] = tested on: dogs suffering from seizures; assay: Example 14: seizures in dogs (CBD Complex); conditions: seizure scale 1 (seizure-free) to 10 (daily or multiple seizures)
Description: (§1) This example examines the ability of embodiments of the invention versus phenobarbital to treat seizures.
(§2) The patient group is twenty-four dogs suffering from seizures as diagnosed by their referring veterinarian. The patient group is broken into six groups of four animals. The first group receives phenobarbital as the sole active agent; the second group receives a composition comprising phenobarbital and Keppra®; the third group receives a composition comprising HMW HA as the sole active agent; the fourth group receives a composition comprising CBD as the sole active agent; the fifth group receives a composition comprising HMW HA and CBD Complex as the active agents; and the sixth group receives a composition comprising HMW HA, CBD Complex, valerian root, and scutillaria as the active agents.
(§3) Each composition is administered for a period of sixty (60) days, BID. Each dog is evaluated on days 0 (“Initial Score”), 15, 30, 45, and 60 (“Final Score”) of treatment. The results are averaged and characterized on a scale of 1 (seizure-free) to 10 (daily seizures or multiple seizures during the event).
The following canine scores are observed and the results depicted in FIG. 14: […]

[2] = tested on: dogs suffering from seizures; assay: Example 6: seizures in dogs; conditions: seizure scale 1 (seizure-free) to 10 (daily or multiple seizures)
Description: as §1
as §2, with “CBD” for “CBD Complex”, “CBD,” for “CBD Complex,”
as §3
The following canine scores are observed and the results depicted in FIG. 6: […]

[3] = tested on: cats suffering behavior aberrations and/or anxiety; assay: Example 5: behavior aberrations and anxiety, Fe-BARQ (feline); conditions: Fe-BARQ day 0 vs 60, SID, 0 (no improvement) to 3 (marked improvement)
Description: (§4) This example examines the ability of embodiments of the invention versus Clomicalm® to reduce behavior aberrations and anxiety.
(§5) The first patient group is twenty dogs suffering behavior aberrations and/or anxiety, as determined by the canine behavioral assessment and research questionnaire (“C-BARQ”). See, e.g., P. Wiener et al., Use of questionnaire-based data to assess dog personality, 16 JOURNAL OF VETERINARY BEHAVIOR 81-85 (2016). The second patient group is twenty cats suffering behavior aberrations and/or anxiety, as determined by the feline behavioral assessment and research questionnaire (“Fe-BARQ”).
(§6) Each group is broken into five groups of four animals. The first group receives Clomicalm® as the sole active agent; the second group receives a composition comprising HMW HA as the sole active agent; the third group receives a composition comprising CBD as the sole active agent; the fourth group receives a composition comprising HMW HA and CBD as the active agents; and the fifth group receives a composition comprising HMW HA, CBD, valerian root, and scutillaria as the active agents.
(§7) Each composition is administered for a period of sixty (60) days, once a day (“SID”). Owners complete the species-appropriate C-BARQ or Fe-BARQ on days 0 and 60 of treatment. The results from the overall questionnaire are averaged and characterized as no improvement (score of 0), mild improvement (score of 1), moderate improvement (score of 2), or marked improvement (score of 3).
The following feline scores are observed and the results depicted in FIG. 5b: […]

[4] = tested on: dogs suffering behavior aberrations and/or anxiety; assay: Example 5: behavior aberrations and anxiety, C-BARQ (canine); conditions: C-BARQ day 0 vs 60, SID, 0 (no improvement) to 3 (marked improvement)
Description: as §4, §5, §6, §7
The following canine scores are observed and the results depicted in FIG. 5a: […]

Row | SMILES | Initial Score ([1]; day 0) | Final Score ([1]; day 60, BID) | Initial Score ([2]; day 0) | Final Score ([2]; day 60, BID) | Improvement Score [3] | Improvement Score [4]
1 | CCC1(c2ccccc2)C(=O)NC(=O)NC1=O [Phenobarbital] | 9 | 8 | 9 | 8 |  | 
2 | CN(C)CCCN1c2ccccc2CCc2ccc(Cl)cc21 [Clomicalm ®] |  |  |  |  | .4 | .5
